According to patent US20040018941A1, “Fused-benzene derivatives of thiouracil, herbicidal and desiccant compositions contaning them” (ISHIHARA SANGYO KAISHA, LTD., priority 2002, published 2004):

Legend:
Type in all cases: in vivo
Settings in all cases: rating 0-100 (0 no damage, 100 complete death), 14 days after application
[1] = test system: soybean (Glycine max L., var. Pella 86, SOY); experiment: Post-emerge crop damage, greenhouse screen, SOY
From the text: (§1) A standard greenhouse herbicide activity screening system was used to evaluate the herbicidal efficacy and crop safety of these test compounds. Seven broadleaf weed species including redroot pigweed (Amaranthus retroflexus, AMARE), velvetleaf (Abutilon theophrasti, ABUTH), sicklepod (Cassia obtusifolia, CASOB), ivyleaf morningglory (Ipomoea hederacea, IPOHE), lambsquarters (Chenopodium album, CHEAL), common ragweed (Ambrosia artemisiifolia L., AMBEL), and cocklebur (Xanthium strumarium, XANST) were used as test species. Four grass weed species including green foxtail (Setaria viridis, SETVI), barnyardgrass (Echinochloa crus-galli, ECHCG), johnsongrass (Sorghum halepense, SORHA), and large crabgrass (Digitaria sanguinalis, DIGSA) were also used. In addition, three crop species, field corn (Zea mays L., var. Dekalb 527, CORN), soybean (Glycine max L., var. Pella 86, SOY), and upland rice (Oryza sp., var. Tebonnet, RICE) were included.
(§2) All plants were grown in 10 cm square plastic pots which were filled with a sandy loam soil mix. For pre-emerge tests, seeds were planted one day prior to application of the test compounds. For post-emerge tests, seeds were planted 8-21 days prior to the test to allow emergence and good foliage development prior to application of the test substances. At the time of the post-emerge application, plants of all species were usually at the 2-3 leaf stage of development.
(§3) All test compounds were dissolved in acetone and applied to the test units in a volume of 187 l/ha. Test materials were applied at rates ranging from 15 g ai/ha to 1000 g ai/ha using a track sprayer equipped with a TJ8001 E even flow flat fan spray nozzle. Plants were arranged on a shelf so that the top of the canopy (post-emerge) or top of the soil surface (pre-emerge) was 40-45 cm below the nozzle. Pressurized air was used to force the test solution through the nozzle as it was mechanically advanced over the top of all test plants/pots. This application simulates a typical commercial field herbicide application.
(§4) In the post-emerge test, a commercial non-ionic surfactant was also included (0.25% v/v) to enhance wetting of the leaf surfaces of target plants. Immediately after application, test units of the pre-emerge applications were watered at the soil surface to incorporate the test materials.
(§5) At 14 days after application of the test materials, phytotoxicity ratings were recorded. A rating scale of 0-100 was used as previously described in Research Methods in Weed Science, 2nd edition, B. Truelove, Ed., Southern Weed Science Society, Auburn University, Auburn, Ala., 1977. Briefly, “0” corresponds to no damage and “100” corresponds to complete death of all plants in the test unit. This scale was used both to determine efficacy against weed species and damage to crop species. Herbicide activity data for various compounds of this invention, which are shown by compound No. in Tables 1-7, are shown in Tables 8 and 9.

[2] = test system: green foxtail (Setaria viridis, SETVI); experiment: Pre-emerge herbicidal activity, greenhouse screen, SETVI
From the text: as §1, §2, §3, §4, §5

[3] = test system: barnyardgrass (Echinochloa crus-galli, ECHCG); experiment: Post-emerge herbicidal activity, greenhouse screen, ECHCG
From the text: as §1, §2, §3, §4, §5

[4] = test system: sicklepod (Cassia obtusifolia, CASOB); experiment: Post-emerge herbicidal activity, greenhouse screen, CASOB
From the text: as §1, §2, §3, §4, §5

[5] = test system: johnsongrass (Sorghum halepense, SORHA); experiment: Post-emerge herbicidal activity, greenhouse screen, SORHA
From the text: as §1, §2, §3, §4, §5

[6] = test system: large crabgrass (Digitaria sanguinalis, DIGSA); experiment: Pre-emerge herbicidal activity, greenhouse screen, DIGSA
From the text: as §1, §2, §3, §4, §5

[7] = test system: velvetleaf (Abutilon theophrasti, ABUTH); experiment: Post-emerge herbicidal activity, greenhouse screen, ABUTH
From the text: as §1, §2, §3, §4, §5

[8] = test system: upland rice (Oryza sp., var. Tebonnet, RICE); experiment: Post-emerge crop damage, greenhouse screen, RICE
From the text: as §1, §2, §3, §4, §5

[9] = test system: green foxtail (Setaria viridis, SETVI); experiment: Post-emerge herbicidal activity, greenhouse screen, SETVI
From the text: as §1, §2, §3, §4, §5

[10] = test system: johnsongrass (Sorghum halepense, SORHA); experiment: Pre-emerge herbicidal activity, greenhouse screen, SORHA
From the text: as §1, §2, §3, §4, §5

[11] = test system: upland rice (Oryza sp., var. Tebonnet, RICE); experiment: Pre-emerge crop damage, greenhouse screen, RICE
From the text: as §1, §2, §3, §4, §5

[12] = test system: common ragweed (Ambrosia artemisiifolia L., AMBEL); experiment: Post-emerge herbicidal activity, greenhouse screen, AMBEL
From the text: as §1, §2, §3, §4, §5

[13] = test system: ivyleaf morningglory (Ipomoea hederacea, IPOHE); experiment: Post-emerge herbicidal activity, greenhouse screen, IPOHE
From the text: as §1, §2, §3, §4, §5

[14] = test system: redroot pigweed (Amaranthus retroflexus, AMARE); experiment: Post-emerge herbicidal activity, greenhouse screen, AMARE
From the text: as §1, §2, §3, §4, §5

[15] = test system: field corn (Zea mays L., var. Dekalb 527, CORN); experiment: Post-emerge crop damage, greenhouse screen, CORN
From the text: as §1, §2, §3, §4, §5

[16] = test system: sicklepod (Cassia obtusifolia, CASOB); experiment: Pre-emerge herbicidal activity, greenhouse screen, CASOB
From the text: as §1, §2, §3, §4, §5

[17] = test system: redroot pigweed (Amaranthus retroflexus, AMARE); experiment: Pre-emerge herbicidal activity, greenhouse screen, AMARE
From the text: as §1, §2, §3, §4, §5

[18] = test system: lambsquarters (Chenopodium album, CHEAL); experiment: Post-emerge herbicidal activity, greenhouse screen, CHEAL
From the text: as §1, §2, §3, §4, §5

[19] = test system: ivyleaf morningglory (Ipomoea hederacea, IPOHE); experiment: Pre-emerge herbicidal activity, greenhouse screen, IPOHE
From the text: as §1, §2, §3, §4, §5

[20] = test system: field corn (Zea mays L., var. Dekalb 527, CORN); experiment: Pre-emerge crop damage, greenhouse screen, CORN
From the text: as §1, §2, §3, §4, §5

[21] = test system: velvetleaf (Abutilon theophrasti, ABUTH); experiment: Pre-emerge herbicidal activity, greenhouse screen, ABUTH
From the text: as §1, §2, §3, §4, §5

[22] = test system: common ragweed (Ambrosia artemisiifolia L., AMBEL); experiment: Pre-emerge herbicidal activity, greenhouse screen, AMBEL
From the text: as §1, §2, §3, §4, §5

[23] = test system: lambsquarters (Chenopodium album, CHEAL); experiment: Pre-emerge herbicidal activity, greenhouse screen, CHEAL
From the text: as §1, §2, §3, §4, §5

[24] = test system: barnyardgrass (Echinochloa crus-galli, ECHCG); experiment: Pre-emerge herbicidal activity, greenhouse screen, ECHCG
From the text: as §1, §2, §3, §4, §5

[25] = test system: large crabgrass (Digitaria sanguinalis, DIGSA); experiment: Post-emerge herbicidal activity, greenhouse screen, DIGSA
From the text: as §1, §2, §3, §4, §5

[26] = test system: soybean (Glycine max L., var. Pella 86, SOY); experiment: Pre-emerge crop damage, greenhouse screen, SOY
From the text: as §1, §2, §3, §4, §5

Cn1c(C(F)(F)F)cc(=O)n(-c2ccc(Cl)c3nc(C(C)(C)C)oc23)c1=S [Compound 1-4]
Post-emerge Herbicidal Activity SOY (crop damage) ([1]; 63 g ai/ha): 50
Post-emerge Herbicidal Activity SOY (crop damage) ([1]; 250 g ai/ha): 50
Pre-emerge Herbicidal Activity SETVI ([2]; 63 g ai/ha): 100
Pre-emerge Herbicidal Activity SETVI ([2]; 250 g ai/ha): 100
Post-emerge Herbicidal Activity ECHCG ([3]; 63 g ai/ha): 90
Post-emerge Herbicidal Activity ECHCG ([3]; 250 g ai/ha): 100
Post-emerge Herbicidal Activity CASOB ([4]; 63 g ai/ha): 60
Post-emerge Herbicidal Activity CASOB ([4]; 250 g ai/ha): 99
Post-emerge Herbicidal Activity SORHA ([5]; 63 g ai/ha): 20
Post-emerge Herbicidal Activity SORHA ([5]; 250 g ai/ha): 30
Pre-emerge Herbicidal Activity DIGSA ([6]; 63 g ai/ha): 100
Pre-emerge Herbicidal Activity DIGSA ([6]; 250 g ai/ha): 100
Post-emerge Herbicidal Activity ABUTH ([7]; 63 g ai/ha): 100
Post-emerge Herbicidal Activity ABUTH ([7]; 250 g ai/ha): 100
Post-emerge Herbicidal Activity RICE (crop damage) ([8]; 63 g ai/ha): 60
Post-emerge Herbicidal Activity RICE (crop damage) ([8]; 250 g ai/ha): 65
Post-emerge Herbicidal Activity SETVI ([9]; 63 g ai/ha): 50
Post-emerge Herbicidal Activity SETVI ([9]; 250 g ai/ha): 100
Pre-emerge Herbicidal Activity SORHA ([10]; 63 g ai/ha): 100
Pre-emerge Herbicidal Activity SORHA ([10]; 250 g ai/ha): 100
Pre-emerge Herbicidal Activity RICE (crop damage) ([11]; 63 g ai/ha): 60
Pre-emerge Herbicidal Activity RICE (crop damage) ([11]; 250 g ai/ha): 90
Post-emerge Herbicidal Activity AMBEL ([12]; 63 g ai/ha): 90
Post-emerge Herbicidal Activity AMBEL ([12]; 250 g ai/ha): 90
Post-emerge Herbicidal Activity IPOHE ([13]; 63 g ai/ha): 95
Post-emerge Herbicidal Activity IPOHE ([13]; 250 g ai/ha): 100
Post-emerge Herbicidal Activity AMARE ([14]; 63 g ai/ha): 100
Post-emerge Herbicidal Activity AMARE ([14]; 250 g ai/ha): 100
Post-emerge Herbicidal Activity CORN (crop damage) ([15]; 63 g ai/ha): 0
Post-emerge Herbicidal Activity CORN (crop damage) ([15]; 250 g ai/ha): 30
Pre-emerge Herbicidal Activity CASOB ([16]; 63 g ai/ha): 70
Pre-emerge Herbicidal Activity CASOB ([16]; 250 g ai/ha): 100
Pre-emerge Herbicidal Activity AMARE ([17]; 63 g ai/ha): 100
Pre-emerge Herbicidal Activity AMARE ([17]; 250 g ai/ha): 100
Post-emerge Herbicidal Activity CHEAL ([18]; 63 g ai/ha): 100
Post-emerge Herbicidal Activity CHEAL ([18]; 250 g ai/ha): 100
Pre-emerge Herbicidal Activity IPOHE ([19]; 63 g ai/ha): 99
Pre-emerge Herbicidal Activity IPOHE ([19]; 250 g ai/ha): 100
Pre-emerge Herbicidal Activity CORN (crop damage) ([20]; 63 g ai/ha): 15
Pre-emerge Herbicidal Activity CORN (crop damage) ([20]; 250 g ai/ha): 85
Pre-emerge Herbicidal Activity ABUTH ([21]; 63 g ai/ha): 100
Pre-emerge Herbicidal Activity ABUTH ([21]; 250 g ai/ha): 100
Pre-emerge Herbicidal Activity AMBEL ([22]; 63 g ai/ha): 80
Pre-emerge Herbicidal Activity AMBEL ([22]; 250 g ai/ha): 100
Pre-emerge Herbicidal Activity CHEAL ([23]; 63 g ai/ha): 100
Pre-emerge Herbicidal Activity CHEAL ([23]; 250 g ai/ha): 100
Pre-emerge Herbicidal Activity ECHCG ([24]; 63 g ai/ha): 100
Pre-emerge Herbicidal Activity ECHCG ([24]; 250 g ai/ha): 100
Post-emerge Herbicidal Activity DIGSA ([25]; 63 g ai/ha): 0
Post-emerge Herbicidal Activity DIGSA ([25]; 250 g ai/ha): 20
Pre-emerge Herbicidal Activity SOY (crop damage) ([26]; 63 g ai/ha): 10
Pre-emerge Herbicidal Activity SOY (crop damage) ([26]; 250 g ai/ha): 80
